Test results reported in ChEMBL document CHEMBL1157392, “A cycloartane incorporating a fused tetrahydrofuran ring and a cytotoxic lactam from Monocarpia marginalis” (J Nat Prod, 2008).
In brackets after ≈: the same amount, converted by molar mass.

Assays:
Type in all cases: functional, cell-based
[1] = system: KB; experiment: Cytotoxicity against drug-sensitive human KB cells
[2] = system: Jurkat; experiment: Cytotoxicity against human Jurkat cells
[3] = Cytotoxicity against vincristine-resistant human KB/VJ300 cells

Structure (SMILES) | IC50 [1] [mg/L] | IC50 [2] [mg/L] | IC50 [3] [mg/L]
CC(C)=C1CC[C@H]([C@H]2CC[C@@]3(C)[C@@H]4CC[C@H]5C(C)(C)[C@@H](O)C(=O)C[C@@]56C[C@@]46CC[C@]23C)[C@H](O)C1 [MONOCARPINE] | > 5 | – | –
O=C1C=CC=C2C(=O)c3c4c(ccc3=C2N1)=CC=N4 [MONOMARGINE] | 4.7 (≈ 18.9 µM) | 0.7 (≈ 2.82 µM) | 3 (≈ 12.1 µM)
COc1cc2c(c3c1=CC=N3)C(=O)C1=CC=CC(=O)NC=21 [MONOMARGININE] | 4 (≈ 14.4 µM) | 0.4 (≈ 1.44 µM) | 2.6 (≈ 9.34 µM)
